According to patent publication US20170119742A1, “MEDICAMENT FOR PREVENTING AND/OR TREATING STRESS DISEASES” (ONO PHARMACEUTICAL CO., LTD., priority 2014, published 2017):

Columns and labels:
brain TSPO = biological target: T1, brain TSPO (Rattus norvegicus, UniProt P16257); assay: Comparison of radiotracer in rat ex vivo brain occupancy (Biological example 5); settings: po, rat cerebral cortex, 3 h; for receptor occupancy at 0.03 mg/kg: 0.03 mg/kg oral; for receptor occupancy at 0.1 mg/kg: 0.1 mg/kg oral; for receptor occupancy at 0.3 mg/kg: 0.3 mg/kg oral; for receptor occupancy at 1 mg/kg: 1 mg/kg oral; for receptor occupancy at 3 mg/kg: 3 mg/kg oral
T1 construct: measured by using brain (cerebral cortex and hippocampus) homogenates of the vehicle treated group and the compound of the present invention treated group; from tissue; host or cells: Wistar rat brain (cerebral cortex, hippocampus) homogenate
Experimental: Next, brain TSPO occupancy of the compound of the present invention was measured by using brain (cerebral cortex and hippocampus) homogenates of the vehicle treated group and the compound of the present invention treated group, using [^3H] PK11195 as a radiotracer. PK11195 was dissolved in dimethyl sulfoxide (DMSO) to prepare a 4 mmol/L solution. After preparing an ethanol solution of 100 nmol/L [^3H] PK11195 (PerkinElmer, Inc.), the solution was diluted 50-fold with 50 mmol/L HEPES buffer (Sigma-Aldrich Co.). In the case of determining the total binding amount of the radiotracer, 50 mmol/L HEPES (99 μL) and DMSO (1 μL) were added to Nunc MiniSorp (trade name, 12×75 mm, Thermo Fisher Scientific Inc.). In the case of determining the nonspecific binding amount of the radiotracer, 4 mmol/L PK11195 (1 μL) was substituted for DMSO (1 μL). The brain homogenate (50 μL) derived from cerebral cortex or the hippocampus was added to the tube. Then [^3H] PK11195 (50 μL) (cerebral cortex: final concentration 0.4532 nmol/L, hippocampus: final concentration 0.4520 nmol/L) was added and stirred, and the mixture was incubated for 90 minutes at 4° C. After completion of the reaction, ice-cold 50 mmol/L HEPES (2 mL) was added to the tube, and then the mixture was suction filtered on a glass fiber filter (GF/B, Brandel Inc.) which pretreated with 0.3 w/v % polyethyleneimine (Sigma-Aldrich Co.), to collect the brain homogenate. After drying the glass fiber filter, the absorbing part of the brain homogenate was transferred to a liquid scintillation vial. ACS-II scintillation cocktail (7 mL) was added to the liquid scintillation vial and stirred, and the radioactivity was measured by liquid scintillation counter (TRI-CARB2900TR, PerkinElmer Life and Analytical Sciences Inc.). Specific binding amount (dpm) of [3H] PK11195 in each brain homogenate was set to a value obtained by subtracting the nonspecific binding amount (dpm) from the total binding amount (dpm). TSPO occupancy (%) in cerebral cortex and hippocampus, of the compound of the present invention treated group, were calculated according to the following equation.
TSPO Occupancy (%)=(1−X/Y)×100
X: Specific binding amount (dpm) in each brain homogenate Y: Average value (dpm) of specific binding amount in control group
The vehicle (0.5 w/v % methylcellulose 400 cP solution) or the compound of the present invention (0.03, 0.1, 0.3, 1 or 3 mg/kg) was orally administered to male Sic: Wistar rats (Japan SLC, Inc., at the time of use: 11 weeks old). After 3 hours of the administration, in the same manner as Biological example 1, brain TSPO occupancy of the compound of the present invention relative to the specific binding of the vehicle control group was measured by measuring the specific binding amount of [^3H] PK11195 or [^3H] PBR28 (Sekisui Medical Co., Ltd.) of brain (cerebral cortex) homogenates (n=8 in each group). As a result, the average TSPO occupancy of 0.03, 0.1, 0.3, 1 and 3 mg/kg group of the compound of the present invention was […] in the cerebral cortex when [^3H] PK11195 was used as a radiotracer. On the other hand, the average TSPO occupancy was 6.5, 11.5, 40.4, 77.7 and 90.2% in the cerebral cortex when [^3H] PBR28 was used as a radiotracer. […] PBR28 or [^3H] PK11195 radiotracer.

[1] = test system: Wistar rats exposed to physical and mental stressors; assay: Antistress effect: stool weight excreted during restraint stressor load in rats; type: in vivo; settings: rat; for average stool wet weight: 2 h before 1 h restraint stressor, vehicle 1.79 g, normal 0.04 g
Experimental: Male Sic: Wistar rats (Japan SLC, Inc., at the time of use: 11 weeks old) was exposed to physical and mental stressors (Journal of Pharmacological Science, Vol. 104, p. 263-273, 2007). The vehicle (0.5 w/v % methylcellulose 400 cP solution) or the compound of the present invention (0.1, 0.3, 1 and 3 mg/kg) was orally administered. Two hours after the administration, the stressor load was started by putting the rat in a restraint stress cage (Natsume Seisakusho Co., Ltd.). The antistress effect was evaluated by measuring the stool weight which was excreted during the stressor load of 1 hour (n=12 in each group).

For `COc1cc(Cl)ccc1[C@H]1c2[nH]c3cccc(F)c3c2C2(CC2)CN1C(C)=O` [the compound of the present invention, (1S)-2-acetyl-1-(4-chloro-2-methoxyphenyl)-5-fluoro-1,2,3,9-tetrahydrospiro[β-carboline-4,1′-cyclopropane]], the receptor occupancy at 0.03 mg/kg (brain TSPO; [3H] PBR28) was 6.5%, the receptor occupancy at 0.03 mg/kg (brain TSPO; [3H] PK11195) was -1.3% and the receptor occupancy at 0.1 mg/kg (brain TSPO; [3H] PBR28) was 11.5%. For the same compound, the receptor occupancy at 0.1 mg/kg (brain TSPO; [3H] PK11195) was 14.9%, the receptor occupancy at 0.3 mg/kg (brain TSPO; [3H] PBR28) was 40.4% and the receptor occupancy at 0.3 mg/kg (brain TSPO; [3H] PK11195) was 48.1%. The receptor occupancy at 1 mg/kg (brain TSPO; [3H] PBR28) was 77.7%, the receptor occupancy at 1 mg/kg (brain TSPO; [3H] PK11195) was 80.9% and the receptor occupancy at 3 mg/kg (brain TSPO; [3H] PBR28) was 90.2%. The receptor occupancy at 3 mg/kg (brain TSPO; [3H] PK11195) was 91.3%, the “average stool wet weight” value ([1]; 0.1 mg/kg oral) was 1.48 g and the “average stool wet weight” value ([1]; 0.3 mg/kg oral) was 0.96 g. For the same compound, the “average stool wet weight” value ([1]; 1 mg/kg oral) was 0.60 g, the “average stool wet weight” value ([1]; 3 mg/kg oral) was 0.67 g and the “effect on stool wet weight compared to the vehicle treated group” value ([1]; dose of 0.3, 1 and 3 mg/kg oral) was “significantly inhibit the stool wet weight”.
